Where a name gives a salt, the structure may show the parent alone. Read-outs that look alike come from different tables or passages of the source.
How the values were obtained:
CUMS treated rats = test: Ethological study of antidepressant effect on CUMS rat model (body weight, open-field test, sucrose consumption); type: in vivo; settings: n=8
Protocol: 40 healthy, adult, male Wistar rats, weighing 200 ± 20 g each, were purchased from the Institute of Laboratory Animal Science, CAMS and PUMC (Beijing, China). The rats were housed individually in cages for one week to adapt to the environment under controlled conditions of 12 h light–12 h dark cycles (lights on from 6:00 a.m. to 6:00 p.m.), […], and temperature (20 ± 3°C) with commercial diet and water available ad libitum. All experimental procedures were approved by the Ethics Committee of the Institute of Medicinal Plant Development, CAMS & PUMC.
All rats except control group were subjected to a series of variable stimuli as previously described after minor modification.
The antidepressant effects of CSGS and QZ extracts were evaluated on a CUMS rat model, a well-validated animal model of depression (see supplementary material Table S1 available online at http://dx.doi.org/10.1155/2013/487158).

rat MAO-A = target: T1, rat MAO-A (Rattus norvegicus, UniProt P21396); test: Monoamine oxidase A (MAO-A) activity assay, spectrophotometric enzymatic kit; type: biochemical
T1 sequence (P21396 1-526): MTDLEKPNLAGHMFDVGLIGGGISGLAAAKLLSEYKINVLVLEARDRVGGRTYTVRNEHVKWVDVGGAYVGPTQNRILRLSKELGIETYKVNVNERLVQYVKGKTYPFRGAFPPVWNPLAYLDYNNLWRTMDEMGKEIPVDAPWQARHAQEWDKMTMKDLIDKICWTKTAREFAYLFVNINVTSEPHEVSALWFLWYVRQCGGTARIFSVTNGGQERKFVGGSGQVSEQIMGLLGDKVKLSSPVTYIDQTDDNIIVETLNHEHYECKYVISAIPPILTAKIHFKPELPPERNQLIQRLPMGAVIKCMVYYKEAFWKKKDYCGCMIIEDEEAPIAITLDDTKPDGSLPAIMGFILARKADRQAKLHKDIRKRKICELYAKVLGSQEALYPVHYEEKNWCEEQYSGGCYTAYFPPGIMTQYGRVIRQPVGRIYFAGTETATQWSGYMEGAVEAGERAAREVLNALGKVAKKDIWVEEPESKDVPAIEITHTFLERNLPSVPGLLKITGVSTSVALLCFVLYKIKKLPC
Protocol: MAO was purified from the rat liver according to the Gómez method after minor modification. The liver tissue was rapidly removed into ice cold homogenized (1 : 10, w/v) in 50 mM KH2PO4 buffer, pH 7.2, containing […]. Following centrifugation at 1000 g for 10 min, the supernatant was centrifuged at 10,000 g for 30 min to obtain crude mitochondrial pellet.
The MAO-A activity was measured by spectrophotometrically (Mapada, UV-3100, China) using enzymatic kits according to the instructions (Nanjing Jiancheng Institute of Biotechnology). IC50 values were used to estimate the inhibition calculated in relation to a sample of the enzyme treated under the same conditions without inhibitor, versus inhibitor concentration.

[1] = design: method as in PMID 3435494, PMID 20515525; settings: must be hydrolyzed by gut microflora enzymes to aglycone naringenin; cited from earlier work
[2] = rat MAO-A as enzyme source (rat liver mitochondrial pellet)
[3] = rat MAO-A as enzyme source (rat liver mitochondrial pellet), read-out: IC50, inhibition against MAO-A activity

Structure (SMILES): CNCCC(Oc1ccc(C(F)(F)F)cc1)c1ccccc1 (stereo not drawn) [Positive control, Fluoxetine hydrochloride]
- Body weight, 0W (CUMS treated rats; 0W (baseline), mean): 191.702 g
- Sucrose consumption, 4W (CUMS treated rats; 4W of treatment): 17.5 g
- Open-field test (OFT), 0W (CUMS treated rats; horizontal movements, 0W (baseline), mean): 81.7
- Open-field test (OFT), 4W (CUMS treated rats; horizontal movements, 4W of treatment, mean): 61.4

Structure (SMILES): COc1ccc([C@@H]2CC(=O)c3c(O)cc(O[C@@H]4O[C@H](CO[C@@H]5O[C@@H](C)[C@H](O)[C@@H](O)[C@H]5O)[C@@H](O)[C@H](O)[C@H]4O)cc3O2)cc1O [Hesperidin]
- IC50, inhibition against MAO-A activity (rat MAO-A; [2]): relatively weak
- IC50 (rat MAO-A; [3]): 26.7 µM

Structure (SMILES): CNCC(O)c1ccc(O)cc1 (stereo not drawn) [Synephrine]
- IC50 (rat MAO-A): 15.2 µM
- IC50, inhibition against MAO-A activity (rat MAO-A; [2]): relatively weak

Structure (SMILES): C[C@@H]1O[C@@H](O[C@H]2[C@H](Oc3cc(O)c4c(c3)O[C@H](c3ccc(O)cc3)CC4=O)O[C@H](CO)[C@@H](O)[C@@H]2O)[C@H](O)[C@H](O)[C@H]1O [Naringin]
- IC50 (rat MAO-A): 5.82 µM
- Absorption from the gastrointestinal tract in its original form [1]: poorly absorbed

Structure (SMILES): COc1ccc([C@@H]2CC(=O)c3c(O)cc(O[C@@H]4O[C@H](CO)[C@@H](O)[C@H](O)[C@H]4O[C@@H]4O[C@@H](C)[C@H](O)[C@@H](O)[C@H]4O)cc3O2)cc1O [Neohesperidin]
- IC50, inhibition against MAO-A activity (rat MAO-A; [2]): relatively weak
- IC50 (rat MAO-A; [3]): 93.8 µM

Reference: article PMC3638638, “Metabonomics Combined with UPLC-MS Chemical Profile for Discovery of Antidepressant Ingredients of a Traditional Chinese Medicines Formula, Chaihu-Shu-Gan-San” (Evidence-based Complementary and Alternative Medicine : eCAM, 2013)
